Assays:
[1] = molecular target: T1, Alpha-1A adrenergic receptor (Homo sapiens, UniProt P35348)
T1 sequence (P35348 whole entry): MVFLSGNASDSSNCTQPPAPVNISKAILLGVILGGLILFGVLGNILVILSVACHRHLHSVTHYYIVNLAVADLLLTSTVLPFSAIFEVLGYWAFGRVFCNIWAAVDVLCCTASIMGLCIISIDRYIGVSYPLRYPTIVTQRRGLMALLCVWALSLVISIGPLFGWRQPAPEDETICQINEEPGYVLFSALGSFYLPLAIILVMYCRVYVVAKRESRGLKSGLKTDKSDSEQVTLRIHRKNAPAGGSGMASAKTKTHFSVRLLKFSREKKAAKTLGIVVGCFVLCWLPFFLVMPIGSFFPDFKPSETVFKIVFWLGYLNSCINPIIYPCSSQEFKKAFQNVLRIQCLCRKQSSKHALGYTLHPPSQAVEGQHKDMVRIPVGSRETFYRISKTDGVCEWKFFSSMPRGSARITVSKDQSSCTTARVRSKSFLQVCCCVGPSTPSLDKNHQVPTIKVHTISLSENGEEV

[2] = molecular target: Beta-2 adrenergic receptor (Homo sapiens, UniProt P07550)
Chain of Beta-2 adrenergic receptor (P07550 whole entry): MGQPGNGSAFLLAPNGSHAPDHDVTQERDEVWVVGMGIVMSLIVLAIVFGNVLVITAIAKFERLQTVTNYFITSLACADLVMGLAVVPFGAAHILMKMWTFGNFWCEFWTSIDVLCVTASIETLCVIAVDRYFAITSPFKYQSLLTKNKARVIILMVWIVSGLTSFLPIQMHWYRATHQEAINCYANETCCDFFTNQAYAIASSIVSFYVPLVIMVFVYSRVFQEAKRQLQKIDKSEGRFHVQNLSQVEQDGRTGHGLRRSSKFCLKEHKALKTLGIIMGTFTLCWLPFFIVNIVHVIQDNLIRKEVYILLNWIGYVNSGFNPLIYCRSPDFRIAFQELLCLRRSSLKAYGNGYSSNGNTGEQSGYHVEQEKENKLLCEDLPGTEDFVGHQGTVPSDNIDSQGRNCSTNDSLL

Vasopressin V1a receptor = Vasopressin V1a receptor (Homo sapiens, UniProt P37288)
Chain of Vasopressin V1a receptor (P37288 whole entry): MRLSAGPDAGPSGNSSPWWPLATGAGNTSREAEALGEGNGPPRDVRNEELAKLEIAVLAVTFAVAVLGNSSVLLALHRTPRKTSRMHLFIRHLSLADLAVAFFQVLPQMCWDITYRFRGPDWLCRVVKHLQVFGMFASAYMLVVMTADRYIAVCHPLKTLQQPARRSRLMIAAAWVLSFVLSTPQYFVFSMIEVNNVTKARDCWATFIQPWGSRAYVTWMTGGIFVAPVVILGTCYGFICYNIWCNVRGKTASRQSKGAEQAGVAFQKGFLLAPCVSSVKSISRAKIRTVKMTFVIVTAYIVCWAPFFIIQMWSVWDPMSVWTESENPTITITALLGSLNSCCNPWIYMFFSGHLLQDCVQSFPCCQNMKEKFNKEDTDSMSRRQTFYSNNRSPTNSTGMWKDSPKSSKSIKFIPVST

[3] = molecular target: Muscarinic acetylcholine receptor M3 (Homo sapiens, UniProt P20309)
Chain of Muscarinic acetylcholine receptor M3 (P20309 whole entry): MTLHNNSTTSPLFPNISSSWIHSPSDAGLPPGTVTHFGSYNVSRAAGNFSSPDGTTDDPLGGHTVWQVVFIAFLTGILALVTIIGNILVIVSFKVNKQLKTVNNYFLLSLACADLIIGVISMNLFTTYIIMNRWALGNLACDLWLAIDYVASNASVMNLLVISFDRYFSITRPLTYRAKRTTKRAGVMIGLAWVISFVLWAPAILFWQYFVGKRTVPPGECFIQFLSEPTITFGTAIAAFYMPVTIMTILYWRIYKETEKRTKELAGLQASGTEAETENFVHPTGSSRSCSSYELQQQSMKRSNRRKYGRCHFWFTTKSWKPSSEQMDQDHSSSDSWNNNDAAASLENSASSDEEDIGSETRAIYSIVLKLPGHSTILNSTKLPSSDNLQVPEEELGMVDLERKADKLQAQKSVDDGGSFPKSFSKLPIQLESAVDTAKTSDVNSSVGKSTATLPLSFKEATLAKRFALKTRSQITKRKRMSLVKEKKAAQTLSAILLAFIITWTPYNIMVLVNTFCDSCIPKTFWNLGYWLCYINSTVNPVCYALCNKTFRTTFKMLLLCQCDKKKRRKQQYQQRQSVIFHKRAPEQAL

Glucocorticoid receptor = molecular target: T2, Glucocorticoid receptor (Homo sapiens, UniProt P04150)
T2 sequence (P04150 whole entry): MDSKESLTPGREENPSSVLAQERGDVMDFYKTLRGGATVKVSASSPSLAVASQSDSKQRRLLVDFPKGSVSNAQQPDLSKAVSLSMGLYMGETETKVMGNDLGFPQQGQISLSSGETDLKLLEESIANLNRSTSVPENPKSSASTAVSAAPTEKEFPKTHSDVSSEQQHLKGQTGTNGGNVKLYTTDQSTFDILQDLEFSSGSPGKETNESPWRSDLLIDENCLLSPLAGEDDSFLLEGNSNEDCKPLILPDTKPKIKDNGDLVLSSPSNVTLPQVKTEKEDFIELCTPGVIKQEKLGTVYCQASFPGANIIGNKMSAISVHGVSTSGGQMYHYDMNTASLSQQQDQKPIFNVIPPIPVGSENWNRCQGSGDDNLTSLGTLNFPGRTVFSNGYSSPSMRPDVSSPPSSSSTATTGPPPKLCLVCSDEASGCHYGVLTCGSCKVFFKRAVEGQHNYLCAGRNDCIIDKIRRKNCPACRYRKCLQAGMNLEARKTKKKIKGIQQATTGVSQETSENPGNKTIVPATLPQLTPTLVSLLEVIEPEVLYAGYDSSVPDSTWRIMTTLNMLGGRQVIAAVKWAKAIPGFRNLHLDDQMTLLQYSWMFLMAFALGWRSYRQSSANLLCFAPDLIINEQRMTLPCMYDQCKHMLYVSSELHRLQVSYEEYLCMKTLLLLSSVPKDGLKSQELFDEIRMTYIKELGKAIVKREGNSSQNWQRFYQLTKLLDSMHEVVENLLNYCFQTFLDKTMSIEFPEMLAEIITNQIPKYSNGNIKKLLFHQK

Progesterone receptor = molecular target: T3, Progesterone receptor (Homo sapiens, UniProt P06401)
T3 sequence (P06401 whole entry): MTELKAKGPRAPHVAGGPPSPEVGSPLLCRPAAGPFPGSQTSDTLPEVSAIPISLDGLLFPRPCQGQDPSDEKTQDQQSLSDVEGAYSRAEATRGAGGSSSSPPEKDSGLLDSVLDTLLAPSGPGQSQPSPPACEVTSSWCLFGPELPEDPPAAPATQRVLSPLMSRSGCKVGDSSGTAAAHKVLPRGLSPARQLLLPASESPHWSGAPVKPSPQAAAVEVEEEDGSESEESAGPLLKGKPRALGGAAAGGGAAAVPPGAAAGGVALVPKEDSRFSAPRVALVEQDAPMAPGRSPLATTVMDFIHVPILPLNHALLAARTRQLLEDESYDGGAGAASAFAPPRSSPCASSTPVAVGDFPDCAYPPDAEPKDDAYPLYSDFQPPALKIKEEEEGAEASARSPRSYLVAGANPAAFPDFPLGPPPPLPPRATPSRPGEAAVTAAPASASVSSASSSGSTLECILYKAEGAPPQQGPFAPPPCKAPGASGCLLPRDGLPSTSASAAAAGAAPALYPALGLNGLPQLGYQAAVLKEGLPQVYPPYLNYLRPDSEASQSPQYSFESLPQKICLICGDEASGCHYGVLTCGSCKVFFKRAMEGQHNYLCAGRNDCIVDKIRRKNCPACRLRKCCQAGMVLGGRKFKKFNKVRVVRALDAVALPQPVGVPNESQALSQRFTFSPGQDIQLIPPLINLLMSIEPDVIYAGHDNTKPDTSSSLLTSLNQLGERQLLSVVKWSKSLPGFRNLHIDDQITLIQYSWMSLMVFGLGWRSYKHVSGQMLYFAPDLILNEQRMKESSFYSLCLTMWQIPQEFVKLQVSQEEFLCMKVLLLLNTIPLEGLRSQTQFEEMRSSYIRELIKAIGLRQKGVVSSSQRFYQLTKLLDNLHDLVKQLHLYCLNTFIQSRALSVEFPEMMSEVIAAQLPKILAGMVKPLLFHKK

Mu-type opioid receptor = Mu-type opioid receptor (Homo sapiens, UniProt P35372)
Chain of Mu-type opioid receptor (P35372 whole entry): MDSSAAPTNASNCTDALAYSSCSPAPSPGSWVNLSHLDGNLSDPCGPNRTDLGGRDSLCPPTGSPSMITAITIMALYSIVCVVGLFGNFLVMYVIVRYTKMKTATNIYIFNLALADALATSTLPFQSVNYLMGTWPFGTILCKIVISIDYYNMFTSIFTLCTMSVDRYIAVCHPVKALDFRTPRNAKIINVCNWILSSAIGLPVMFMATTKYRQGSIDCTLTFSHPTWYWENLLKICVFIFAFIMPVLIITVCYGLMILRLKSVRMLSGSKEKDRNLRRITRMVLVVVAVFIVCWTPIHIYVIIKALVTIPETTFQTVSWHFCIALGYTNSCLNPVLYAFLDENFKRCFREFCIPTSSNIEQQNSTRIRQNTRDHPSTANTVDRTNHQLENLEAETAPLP

Histamine H3 receptor = Histamine H3 receptor (Homo sapiens, UniProt Q9Y5N1)
Chain of Histamine H3 receptor (Q9Y5N1 whole entry): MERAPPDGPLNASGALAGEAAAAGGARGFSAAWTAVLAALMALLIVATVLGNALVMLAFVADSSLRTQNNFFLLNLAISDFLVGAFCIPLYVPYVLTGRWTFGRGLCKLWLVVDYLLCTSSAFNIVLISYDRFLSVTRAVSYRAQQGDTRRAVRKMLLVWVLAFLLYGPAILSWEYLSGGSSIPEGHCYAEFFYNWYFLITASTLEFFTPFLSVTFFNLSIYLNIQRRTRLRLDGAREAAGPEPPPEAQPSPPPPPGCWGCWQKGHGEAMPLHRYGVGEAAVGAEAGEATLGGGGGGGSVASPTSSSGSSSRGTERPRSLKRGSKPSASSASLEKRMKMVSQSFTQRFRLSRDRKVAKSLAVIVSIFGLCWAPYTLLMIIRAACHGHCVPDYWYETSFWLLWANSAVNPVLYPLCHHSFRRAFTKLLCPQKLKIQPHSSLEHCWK

Endothelin-1 receptor = molecular target: T4, Endothelin-1 receptor (Homo sapiens, UniProt P25101)
T4 sequence (P25101 whole entry): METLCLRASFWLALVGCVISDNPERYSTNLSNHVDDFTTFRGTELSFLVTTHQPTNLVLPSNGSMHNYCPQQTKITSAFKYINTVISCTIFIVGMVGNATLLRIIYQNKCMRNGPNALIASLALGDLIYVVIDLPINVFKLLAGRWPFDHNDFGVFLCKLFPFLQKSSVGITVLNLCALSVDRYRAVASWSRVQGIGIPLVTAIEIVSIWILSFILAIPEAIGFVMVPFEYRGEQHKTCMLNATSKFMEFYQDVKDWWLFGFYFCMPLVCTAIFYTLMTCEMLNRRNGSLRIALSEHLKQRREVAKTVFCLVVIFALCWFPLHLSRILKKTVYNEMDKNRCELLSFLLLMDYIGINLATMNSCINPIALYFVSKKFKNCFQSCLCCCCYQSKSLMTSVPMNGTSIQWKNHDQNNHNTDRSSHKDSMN
Further: assay procedure not described here.

C[C@]12CC[C@H](O)CC1=CC[C@@H]1[C@@H]2CC[C@]2(C)C(c3cccnc3)=CC[C@@H]12 [ABIRATERONE]
AC50 [1]: > 10 µM
AC50 [2]: > 30 µM
AC50 (Vasopressin V1a receptor): > 30 µM
AC50 [3]: > 30 µM
AC50 (Glucocorticoid receptor): > 30 µM
AC50 (Progesterone receptor): > 30 µM
AC50 (Mu-type opioid receptor): > 30 µM
AC50 (Histamine H3 receptor): > 10 µM

COc1ccc2c(c1)[C@]13CCCC[C@@H]1[C@H](C2)N(C)CC3 [DEXTROMETHORPHAN]
AC50 [1]: 3.58 µM
AC50 [2]: > 10 µM
AC50 (Vasopressin V1a receptor): > 10 µM
AC50 (Endothelin-1 receptor): > 30 µM
AC50 (Glucocorticoid receptor): > 30 µM
AC50 (Progesterone receptor): > 30 µM
AC50 (Mu-type opioid receptor): 2.7 µM
AC50 (Histamine H3 receptor): > 10 µM

COCCCOc1ccnc(C[S+]([O-])c2nc3ccccc3[nH]2)c1C (centres undefined) [RABEPRAZOLE]
AC50 [1]: > 10 µM
AC50 [2]: > 10 µM
AC50 (Vasopressin V1a receptor): > 10 µM
AC50 (Endothelin-1 receptor): > 30 µM
AC50 (Glucocorticoid receptor): > 30 µM
AC50 (Progesterone receptor): > 30 µM
AC50 (Mu-type opioid receptor): > 30 µM
AC50 (Histamine H3 receptor): > 10 µM
